According to PubChem BioAssay AID1919008 (Molecular Pharmacology Branch, DTP, NCI, 2023):

Tested on: DMS-114 complex spheroids with HUVEC/MSC, growth % test/control
Assay: Anticancer human tumor DMS-114 cell line growth inhibition [AhR];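 further: spheroids exposed to agents for 7 days before readout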;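 on viability, T/C: 100% = DMSO vehicle control wells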
Details: for IC50: curve of first compound; for viability, T/C: stronger effect = lower value
Procedure, shortened: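 Agents were dosed in half-log steps down from roughly clinical Cmax, or from 10 microM where Cmax was unknown, alone and with AhR antagonists. Read-out: percent test/control growth of tumor spheroids containing HUVEC and MSC stromal cells.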

[1] = second compound 0.1 µM, first compound 0.0316 µM
[2] = second compound 0.1 µM, first compound 0.1 µM
[3] = second compound 0.1 µM, first compound 0.316 µM
[4] = second compound 0.1 µM, first compound 1 µM
[5] = second compound 0.1 µM, first compound 3.16 µM
[6] = second compound 0.1 µM, first compound 10 µM
[7] = second compound 0.316 µM, first compound 0.0316 µM
[8] = second compound 0.316 µM, first compound 0.1 µM
[9] = second compound 0.316 µM, first compound 0.316 µM
[10] = second compound 0.316 µM, first compound 1 µM
[11] = second compound 0.316 µM, first compound 3.16 µM
[12] = second compound 0.316 µM, first compound 10 µM
[13] = second compound 1 µM, first compound 0.0316 µM
[14] = second compound 1 µM, first compound 0.1 µM
[15] = second compound 1 µM, first compound 0.316 µM
[16] = second compound 1 µM, first compound 1 µM
[17] = second compound 1 µM, first compound 3.16 µM
[18] = second compound 1 µM, first compound 10 µM
[19] = second compound 3.16 µM, first compound 0.0316 µM
[20] = second compound 3.16 µM, first compound 0.1 µM
[21] = second compound 3.16 µM, first compound 0.316 µM
[22] = second compound 3.16 µM, first compound 1 µM
[23] = second compound 3.16 µM, first compound 3.16 µM
[24] = second compound 3.16 µM, first compound 10 µM
[25] = second compound 10 µM, first compound 0.0316 µM
[26] = second compound 10 µM, first compound 0.1 µM
[27] = second compound 10 µM, first compound 0.316 µM
[28] = second compound 10 µM, first compound 1 µM
[29] = second compound 10 µM, first compound 3.16 µM
[30] = second compound 10 µM, first compound 10 µM

Work on `CC(C)c1c(-c2ccccc2)nc2c(C#N)c[nH]n2c1=O` + Cc1cncc(-c2nc(NCCc3c[nH]c4ccccc34)c3ncn(C(C)C)c3n2)c1 yielded an IC50 (second compound 0.1 µM) of over 10000 nM, an IC50 (second compound 0.316 µM) of over 10000 nM and an IC50 (second compound 1 µM) of over 10000 nM. For the same compound, the IC50 (second compound 3.16 µM) was over 10000 nM, the IC50 (second compound 10 µM) was under 31.6 nM and the viability, T/C [1] was 111%. For the same compound, the viability, T/C [2] was 100%, the viability, T/C [3] was 103% and the viability, T/C [4] was 108%. It also gave a viability, T/C [5] of 97.4%, a viability, T/C [6] of 97.4% and a viability, T/C [7] of 107%. It also gave a viability, T/C [8] of 97.9%, a viability, T/C [9] of 103% and a viability, T/C [10] of 92.6%. For the same compound, the viability, T/C [11] was 111%, the viability, T/C [12] was 95.3% and the viability, T/C [13] was 107%. The viability, T/C [14] was 107%, the viability, T/C [15] was 102% and the viability, T/C [16] was 112%. The viability, T/C [17] was 101%, the viability, T/C [18] was 108% and the viability, T/C [19] was 92.9%. For the same compound, the viability, T/C [20] was 80.6%, the viability, T/C [21] was 83.3% and the viability, T/C [22] was 88.8%. The viability, T/C [23] was 86.4%, the viability, T/C [24] was 92.6% and the viability, T/C [25] was 30.4%. For the same compound, the viability, T/C [26] was 40.1%, the viability, T/C [27] was 33.3% and the viability, T/C [28] was 40%. It also gave a viability, T/C [29] of 32.5% and a viability, T/C [30] of 46.4%.

`CC1COCCN1c1cc(-c2ccnn2C)c2ccnc(-c3ccn[nH]3)c2n1` (stereo not given) + Cc1cncc(-c2nc(NCCc3c[nH]c4ccccc34)c3ncn(C(C)C)c3n2)c1 gave an IC50 (second compound 0.1 µM) of 38 nM, an IC50 (second compound 0.316 µM) of 51 nM and an IC50 (second compound 1 µM) of 41.5 nM. It also gave an IC50 (second compound 3.16 µM) of 41.8 nM, an IC50 (second compound 10 µM) of under 3.16 nM and a viability, T/C (second compound 0.1 µM, first compound 0.00316 µM) of 90.6%. For the same compound, the viability, T/C (second compound 0.1 µM, first compound 0.01 µM) was 85.9%, the viability, T/C [1] was 51% and the viability, T/C [2] was 29.9%. For the same compound, the viability, T/C [3] was 19.6%, the viability, T/C [4] was 12.8% and the viability, T/C (second compound 0.316 µM, first compound 0.00316 µM) was 97.1%. The viability, T/C (second compound 0.316 µM, first compound 0.01 µM) was 93.7%, the viability, T/C [7] was 61.8% and the viability, T/C [8] was 31.4%. It also gave a viability, T/C [9] of 19.8%, a viability, T/C [10] of 12% and a viability, T/C (second compound 1 µM, first compound 0.00316 µM) of 87.5%. It also gave a viability, T/C (second compound 1 µM, first compound 0.01 µM) of 92.6%, a viability, T/C [13] of 55.3% and a viability, T/C [14] of 27.9%. It also gave a viability, T/C [15] of 23.6%, a viability, T/C [16] of 11.7% and a viability, T/C (second compound 3.16 µM, first compound 0.00316 µM) of 83.9%. It also gave a viability, T/C (second compound 3.16 µM, first compound 0.01 µM) of 85.9%, a viability, T/C [19] of 55.8% and a viability, T/C [20] of 26.7%. For the same compound, the viability, T/C [21] was 17%, the viability, T/C [22] was 11.2% and the viability, T/C (second compound 10 µM, first compound 0.00316 µM) was 28.8%. For the same compound, the viability, T/C (second compound 10 µM, first compound 0.01 µM) was 29.6%, the viability, T/C [25] was 22.6% and the viability, T/C [26] was 15.5%. It also gave a viability, T/C [27] of 9.12% and a viability, T/C [28] of 7.26%.

`COc1ccc([C@@H](O)c2cc(-c3ncnc4cc(N5CCOCC5)ccc34)c(F)cc2Cl)nn1` + Cc1cncc(-c2nc(NCCc3c[nH]c4ccccc34)c3ncn(C(C)C)c3n2)c1 was tested, and the IC50 (second compound 0.1 µM) was over 10000 nM, the IC50 (second compound 0.316 µM) was over 10000 nM and the IC50 (second compound 1 µM) was over 10000 nM. The IC50 (second compound 3.16 µM) was 7740 nM, the IC50 (second compound 10 µM) was under 31.6 nM and the viability, T/C [1] was 125%. It also gave a viability, T/C [2] of 95.8%, a viability, T/C [3] of 102% and a viability, T/C [4] of 104%. The viability, T/C [5] was 107%, the viability, T/C [6] was 55.7% and the viability, T/C [7] was 101%. The viability, T/C [8] was 93%, the viability, T/C [9] was 96.2% and the viability, T/C [10] was 104%. For the same compound, the viability, T/C [11] was 87.5%, the viability, T/C [12] was 52.2% and the viability, T/C [13] was 98.7%. It also gave a viability, T/C [14] of 103%, a viability, T/C [15] of 99.8% and a viability, T/C [16] of 107%. It also gave a viability, T/C [17] of 94.4%, a viability, T/C [18] of 53.2% and a viability, T/C [19] of 87%. It also gave a viability, T/C [20] of 90.1%, a viability, T/C [21] of 98.7% and a viability, T/C [22] of 94.5%. The viability, T/C [23] was 85.4%, the viability, T/C [24] was 39.5% and the viability, T/C [25] was 35.6%. It also gave a viability, T/C [26] of 38.9%, a viability, T/C [27] of 29.7% and a viability, T/C [28] of 29.7%. The viability, T/C [29] was 17.9% and the viability, T/C [30] was 12.4%.

With `O=C(C=Cn1cnc(-c2cc(C(F)(F)F)cc(C(F)(F)F)c2)n1)NNc1cnccn1` + Cc1cncc(-c2nc(NCCc3c[nH]c4ccccc34)c3ncn(C(C)C)c3n2)c1 the IC50 (second compound 0.1 µM) was 158 nM, the IC50 (second compound 0.316 µM) was 175 nM and the IC50 (second compound 1 µM) was 166 nM. It also gave an IC50 (second compound 3.16 µM) of 166 nM, an IC50 (second compound 10 µM) of under 9.49 nM and a viability, T/C (second compound 0.1 µM, first compound 0.00949 µM) of 111%. For the same compound, the viability, T/C (second compound 0.1 µM, first compound 0.03 µM) was 101%, the viability, T/C (second compound 0.1 µM, first compound 0.0949 µM) was 61.7% and the viability, T/C (second compound 0.1 µM, first compound 0.3 µM) was 32.7%. For the same compound, the viability, T/C (second compound 0.1 µM, first compound 0.949 µM) was 15.1%, the viability, T/C (second compound 0.1 µM, first compound 3 µM) was 5.4% and the viability, T/C (second compound 0.316 µM, first compound 0.00949 µM) was 103%. The viability, T/C (second compound 0.316 µM, first compound 0.03 µM) was 99.8%, the viability, T/C (second compound 0.316 µM, first compound 0.0949 µM) was 63.5% and the viability, T/C (second compound 0.316 µM, first compound 0.3 µM) was 36.6%. The viability, T/C (second compound 0.316 µM, first compound 0.949 µM) was 14.4%, the viability, T/C (second compound 0.316 µM, first compound 3 µM) was 5.66% and the viability, T/C (second compound 1 µM, first compound 0.00949 µM) was 110%. For the same compound, the viability, T/C (second compound 1 µM, first compound 0.03 µM) was 109%, the viability, T/C (second compound 1 µM, first compound 0.0949 µM) was 65.3% and the viability, T/C (second compound 1 µM, first compound 0.3 µM) was 31.7%. It also gave a viability, T/C (second compound 1 µM, first compound 0.949 µM) of 13.6%, a viability, T/C (second compound 1 µM, first compound 3 µM) of 5.72% and a viability, T/C (second compound 3.16 µM, first compound 0.00949 µM) of 94%. It also gave a viability, T/C (second compound 3.16 µM, first compound 0.03 µM) of 109%, a viability, T/C (second compound 3.16 µM, first compound 0.0949 µM) of 61.1% and a viability, T/C (second compound 3.16 µM, first compound 0.3 µM) of 34.5%. The viability, T/C (second compound 3.16 µM, first compound 0.949 µM) was 15.1%, the viability, T/C (second compound 3.16 µM, first compound 3 µM) was 5.67% and the viability, T/C (second compound 10 µM, first compound 0.00949 µM) was 38.6%. It also gave a viability, T/C (second compound 10 µM, first compound 0.03 µM) of 34.2%, a viability, T/C (second compound 10 µM, first compound 0.0949 µM) of 30.6% and a viability, T/C (second compound 10 µM, first compound 0.3 µM) of 21.1%. The viability, T/C (second compound 10 µM, first compound 0.949 µM) was 13.5% and the viability, T/C (second compound 10 µM, first compound 3 µM) was 7.49%.
